# Experimental data from patent US6096725A, “Methods of using αGal oligosaccharides as immune system targeting agents” (Neose Technologies, Inc., priority 1997, dated 2000).
# Read-outs that look alike come from different tables or passages of the source.
# What was measured:
# [1] = test system: hyperacute rejection (HAR) of porcine heart xenografted to the neck of a baboon; format: in vivo; details: for Onset of IgG, IgM and complement (C3) deposition at the endothelial surface: immunofluorescence
# Text: Primate model for testing and application of αGal oligosaccharides and dosages thereof. Due to the many similarities between human and baboon immune systems (Neubauer et al., 1981, J. Immunogenetics, 8:433-442; Garver et al., 1980, Cytogenetics & Cell Genetics, 27:238-245; Brodsky et al., 1982, Immunogenetics, 155:151-166; Hammer, C., in Hardy, M. A. (ed.), Xenograft 25, 115-123 (Elsevier, N.Y., 1989); Stark, J. H., et al., Transplantation, 30 52(6):1072-1078 (December 1991); Hammer, C., in Cooper, D. K. C., et al. (eds.), Xenotransplantation, 429-438 (Springer-Verlag 1991)), and because of the large size of baboons, these animals are convenient experimental model recipients of pig organs. These non-human primates also express anti-pig antibodies, and reject pig organs hyperacutely (Lexer et al., 1986, J. Heart Transplant, 4:411-418; Ye, Y., Cooper, D. K. C., in Cooper, D. K. C., et al. (eds.), Xenotransplantation,389-393 (Springer-Verlag 1991); Cooper et al., 1991, J. Heart Transplant, 7:238-246, 1988; Platt et al., 1991, Transplantation, 52(2):214-220). A normal porcine heart was transplanted into the neck of a normal baboon. αGal pentasaccharide was infused (i.v.) to establish and maintain blood oligosaccharide levels predicted to inhibit HAR until infusate was exhausted (See Table 2). The ability of i.v. infused αGal pentasaccharide to block hyperacute rejection (HAR) of porcine heart xenografted to the neck of a baboon was determined and blood levels of αGal oligosaccharide, anti-αGal antibodies, and serum or plasma cytotoxicity toward pig kidney and mouse endothelial cells was monitored and correlated with the onset of HAR.
# The heart was excised from the pig donor and transplanted in the neck of the baboon recipient using techniques essentially as described by Cooper et al., 1993, Transplantation, 56:769-777.
# The two xenotransplant baboons were outfitted with an indwelling catheter to the femoral vein to infuse compound and a catheter to the femoral artery for blood sampling. Following the transplant procedure, but just prior to providing circulatory access to the xenograft, the oligosaccharide was administered by i.v. pump through the catheter in a 15 min loading dose, followed by continuous 4 hour infusion to achieve 2.5 mM blood concentration (as determined by calculations presented in Table 2). […] Blood specimens collected for plasma were immediately centrifuged and the plasma withdrawn and stored frozen at -20° C. Blood specimens collected for serum were clotted at 4° C. overnight and the withdrawn serum frozen at -20° C. The αGal pentasaccharide was prepared according to the enzymatic methods set forth in example 6.2 and stored as a dry, white, solid powder. The oligosaccharide was dissolved in 250 mL sterile infusion grade saline to a concentration of 0.154 g/mL, or 177 mM. Induction anesthesia was with ketamine hydrochloride 5 mg/kg/body weight in and 0.5 mg/kg of xylazine iv. Intravenous fluid of approximately 20 ml/kg body weight was given during the course of the operative procedure through either a peripheral or central vein. Atropine 0.5 mg/kg was given iv. The larynx was sprayed with 2% lidocaine. Endotracheal intubation was carried out. The endotracheal tube was taped to the maxilla. The pig or baboon was ventilated with a Harvard positive pressure ventilator. Anesthesia was maintained with nitrous oxide 2 L/min and oxygen 1 L/min and 0.2%-1.2% halothane, at a respiratory rate of approximately 10 to 20 breaths per minute depending on the size of the animal. Tidal volume (approximately 20-24 ml/kg) was also adjusted to suit the size of the animal, and the ventilatory pressure was adjusted to approximately […]. Blood gases were checked, and ventilation adjusted as necessary. Arterial pressure was monitored in the recipient baboon by intermittent automatic cuff recordings. […]
# [2] = design: species or system baboon; details: in vivo
# Description: The two xenotransplant baboons were outfitted with an indwelling catheter to the femoral vein to infuse compound and a catheter to the femoral artery for blood sampling. Following the transplant procedure, but just prior to providing circulatory access to the xenograft, the oligosaccharide was administered by i.v. pump through the catheter in a 15 min loading dose, followed by continuous 4 hour infusion to achieve 2.5 mM blood concentration (as determined by calculations presented in Table 2). […] Blood specimens collected for plasma were immediately centrifuged and the plasma withdrawn and stored frozen at -20° C. Blood specimens collected for serum were clotted at 4° C. overnight and the withdrawn serum frozen at -20° C. The αGal pentasaccharide was prepared according to the enzymatic methods set forth in example 6.2 and stored as a dry, white, solid powder. The oligosaccharide was dissolved in 250 mL sterile infusion grade saline to a concentration of 0.154 g/mL, or 177 mM. Induction anesthesia was with ketamine hydrochloride 5 mg/kg/body weight in and 0.5 mg/kg of xylazine iv. Intravenous fluid of approximately 20 ml/kg body weight was given during the course of the operative procedure through either a peripheral or central vein. Atropine 0.5 mg/kg was given iv. […] Arterial pressure was monitored in the recipient baboon by intermittent automatic cuff recordings.
# [3] = Human dose and half-life estimates extrapolated from baboon pharmacokinetics; details: human patient of 70 Kg
# Description: ^1 To achieve a steady state serum concentration for monovalent αGal pentasaccharide of 1 mM (i.e., 0.9 mg/mL) in a human patient of 70 Kg, it is estimated that a loading dose of 412 mg/Kg be administered in the form of a bolus or 15 minute infusion, followed by a continuous infusion of 30 g/h over a 14 day period (see Table 2 for further αGal trisaccharide and αGal pentasaccharide 2 infusion regimens).
# The clearance is used to calculate the infusion rate needed to maintain a desired drug concentration. The half-life describes how quickly concentrations diminish with time. Mathematical formulations known in the art were applied to estimate the pharmacokinetic parameters of the αGal trisaccharide and αGal pentasaccharide. […] Compared to other drugs, the volumes of distribution of these oligosaccharides are low, less than the extravascular water volume (<400 mL/kg). The clearance is typical of compounds eliminated by GFR (glomerular filtration rate).
smiles,measurement,setting,value
"CC(=O)N[C@H]1[C@H](O[C@H]2[C@@H](O)[C@@H](CO)O[C@@H](O[C@H]3[C@H](O)[C@@H](O)C(O)O[C@@H]3CO)[C@@H]2O)O[C@H](CO)[C@@H](O[C@@H]2O[C@H](CO)[C@H](O)[C@H](O[C@H]3O[C@H](CO)[C@H](O)[C@H](O)[C@H]3O)[C@H]2O)[C@@H]1O (stereo partly shown) [αGal pentasaccharide, Galα1-3Galβ1-4GlcNAcβ1-3Galβ1-4Glc]","Onset of IgG, IgM and complement (C3) deposition at the endothelial surface",[1]; first baboon,1.5 h
same,Alteration in blood chemistry,[1]; in vivo,increase in creatinine phosphokinase
same,Hematology results,[1]; in vivo,unremarkable
same,Xenograft histology,"[1]; initial 3 hours of infusion, data not shown",Essentially normal histology
same,"Onset of IgG, IgM and complement (C3) deposition at the endothelial surface",[1]; second baboon,3 h
same,Xenograft heart beat during infusion,"[1]; two baboons, four hour infusion, result in words",an even beat was maintained for the duration of the four hour oligosaccharide infusion
same,Time of xenograft excision after cessation of the 4 hour infusion,"[1]; two baboons, untreated pig hearts rejected in 5-10 minutes",more than 1 hour
same,Blood concentration relative to prediction from earlier pharmacokinetic infusions,[2],approximately twice what was predicted
same,Estimated continuous infusion,"[3]; 1 mM steady state, over a 14 day period",30 g/h
same,Estimated loading dose (bolus or 15 minute infusion),[3]; steady state serum concentration 1 mM (0.9 mg/mL),412 mg/kg
